According to PubChem BioAssay AID1963872 (Molecular Pharmacology Branch, DTP, NCI, 2024):
pIC50: −log10 of the molar value.

Test system: KRAS patient-derived spheroids with HUVEC/MSC, viability
Experiment: Anticancer human tumor 519858-162-T-J1-PDC patient-derived colon adenocarcinoma cell line growth inhibition [KRAS2]
Conditions: for pIC50: curve of first compound; for viability, T/C: stronger effect = lower value
Description: Multicellular complex tumor spheroid response to RAS pathway inhibitors in combination with a targeted agents in patient-derived cell lines with oncogenic KRAS variants from multiple cancer types
A high-throughput screen of multi-cell type tumor spheroids was designed to identify active combinations of targeted small molecules and KRAS pathway inhibitors. Complex spheroids include a stromal component modeled by human endothelial cells (HUVEC) and fibroblasts modeled by human mesenchymal stem cells (MSCs). The concentration ranges selected for each drug and investigational agent were based upon clinically achievable concentrations if the clinical Cmax of the agent was known.
Compounds. The drugs and investigational agents: BI-3406 (NSC825286), BAY-293 (NSC824723), batoprotafib (TNO155; NSC825523), sotorasib (AMG 510; NSC818433), MRTX1257 (NSC819558), elimusertib (BAY 1895344; NSC800525), molibresib (GSK525762; NSC774829), temuterkib (LY3214996; NSC803410), venetoclax (NSC766270), alisertib (NSC759677), olaparib (NSC753686), talazoparib (NSC767125), erdafitinib (NSC781556), ipatasertib (NSC767898), cabozantinib (NSC761068), nintedanib (NSC756659), abemaciclib (NSC768073), docetaxel (NSC628503), trametinib (NSC758246), and sapanisertib (NSC764658) were obtained from the National Cancer Institute (NCI) Developmental Therapeutics Program Chemical Repository. The FDA-approved anticancer drug set is available from the Developmental Therapeutics Program. […] The stock solutions were prepared in dimethyl sulfoxide (DMSO, Sigma-Aldrich, St. Louis, MO, cat. D2650) at 800-fold the tested concentration and stored at -70 degrees C prior to their use. All drugs and investigational agents were tested over a range starting from a high concentration at or near the clinical Cmax and decreasing in half-log increments. If the clinical Cmax for an agent had not been determined, the highest concentration tested was 10 microM.
Cell Culture. All cells were maintained in an incubator at 37 degrees C and 5% CO2 with 95% humidity. The PDC lines were cultured according to standard operating procedures established by the NCI PDMR (https://pdmr.cancer.gov/sops/default.htm). Briefly, all PDCs were thawed and cultured in Matrigel-coated flasks prepared with a working solution of 1X Ham's F-12 nutrient mix, without supplementation (Invitrogen, Waltham, MA, cat. 11765054), 100 U/mL penicillin-streptomycin (Invitrogen, cat. 15140122), and 2.5% Matrigel (Corning Inc., Corning, NY, cat. 354248) for the first three passages. All PDCs were cultured in complete DMEM/F-12 media containing advanced DMEM/F-12 (Invitrogen, cat. 12634028), 4.9% defined fetal bovine serum, heat inactivated (HyClone Laboratories Inc., Logan, UT, cat. SH30070.03HI), 389 ng/mL hydrocortisone (Sigma-Aldrich, cat. H4001), 9.7 ng/mL human EGF recombinant protein (Invitrogen, cat. PHG0313), 23.4 microg/mL adenine (Sigma-Aldrich, cat. A2786), 97.3 U/mL penicillin-streptomycin (Invitrogen, cat. 15140122), 1.9 mM L-glutamine (Invitrogen, cat. 25030081), and 9.7 microM Y-27632 dihydrochloride (Tocris Bioscience, Bristol, United Kingdom, cat. 1254). The PDCs were cultured in complete DMEM/F12 media without 9.7 microM Y-27632 dihydrochloride for at least two passages prior to the screen. The established cell line HOP-62 was cultured in RPMI 1640 medium, HEPES (Invitrogen, cat. 22400105) with 10% defined fetal bovine serum (HyClone Laboratories Inc., cat. SH30070.03) and 2 mM L-glutamine (Invitrogen, cat. 25030081). The pooled donor HUVEC were cultured in endothelial cell growth medium 2 (PromoCell, Heidelberg, Germany, cat. C-22011) and the hMSC were cultured in mesenchymal stem cell growth medium 2 (PromoCell, cat. C-28009). For all experiments, HUVEC and hMSC were used at passages </=5, while the malignant cell lines were used at passages </=15. […]

[1] = second compound 0.1 µM, first compound 0.0316 µM
[2] = second compound 0.1 µM, first compound 0.1 µM
[3] = second compound 0.316 µM, first compound 0.0316 µM
[4] = second compound 0.316 µM, first compound 0.1 µM
[5] = second compound 1 µM, first compound 0.0316 µM
[6] = second compound 1 µM, first compound 0.1 µM
[7] = second compound 3.16 µM, first compound 0.0316 µM
[8] = second compound 3.16 µM, first compound 0.1 µM
[9] = second compound 0.1 µM, first compound 0.316 µM
[10] = second compound 0.1 µM, first compound 1 µM
[11] = second compound 0.1 µM, first compound 3.16 µM
[12] = second compound 0.1 µM, first compound 10 µM
[13] = second compound 0.316 µM, first compound 0.316 µM
[14] = second compound 0.316 µM, first compound 1 µM
[15] = second compound 0.316 µM, first compound 3.16 µM
[16] = second compound 0.316 µM, first compound 10 µM
[17] = second compound 1 µM, first compound 0.316 µM
[18] = second compound 1 µM, first compound 1 µM
[19] = second compound 1 µM, first compound 3.16 µM
[20] = second compound 1 µM, first compound 10 µM
[21] = second compound 3.16 µM, first compound 0.316 µM
[22] = second compound 3.16 µM, first compound 1 µM
[23] = second compound 3.16 µM, first compound 3.16 µM
[24] = second compound 3.16 µM, first compound 10 µM
[25] = second compound 10 µM, first compound 0.0316 µM
[26] = second compound 10 µM, first compound 0.1 µM
[27] = second compound 10 µM, first compound 0.316 µM
[28] = second compound 10 µM, first compound 1 µM
[29] = second compound 10 µM, first compound 3.16 µM
[30] = second compound 10 µM, first compound 10 µM
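Note: compound exposure lasted seven days before readout.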
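Throughout, for viability, T/C: 100% = DMSO vehicle control viability.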

CC(C)n1nc(-c2ccc3oc(N)nc3c2)c2c(N)ncnc21 + C=CC(=O)N1CCN(c2nc(OCC3CCCN3C)nc3c2CCN(c2cccc4cccc(C)c24)C3)CC1CC#N
pIC50 (second compound 0.0316 µM): < 7.00 | pIC50 (second compound 0.1 µM): 7.46 | pIC50 (second compound 0.316 µM): 7.10 | pIC50 (second compound 1 µM): < 7.00 | pIC50 (second compound 3.16 µM): 7.25 | viability, T/C (second compound 0.0316 µM, first compound 0.000316 µM): 97.9% | viability, T/C (second compound 0.0316 µM, first compound 0.001 µM): 82% | viability, T/C (second compound 0.0316 µM, first compound 0.00316 µM): 81.8% | viability, T/C (second compound 0.0316 µM, first compound 0.01 µM): 63.5% | viability, T/C (second compound 0.0316 µM, first compound 0.0316 µM): 61.8% | viability, T/C (second compound 0.0316 µM, first compound 0.1 µM): 57.7% | viability, T/C (second compound 0.1 µM, first compound 0.000316 µM): 103% | viability, T/C (second compound 0.1 µM, first compound 0.001 µM): 104% | viability, T/C (second compound 0.1 µM, first compound 0.00316 µM): 74.3% | viability, T/C (second compound 0.1 µM, first compound 0.01 µM): 70.2% | viability, T/C [1]: 50.9% | viability, T/C [2]: 39.2% | viability, T/C (second compound 0.316 µM, first compound 0.000316 µM): 74.6% | viability, T/C (second compound 0.316 µM, first compound 0.001 µM): 83.8% | viability, T/C (second compound 0.316 µM, first compound 0.00316 µM): 78.3% | viability, T/C (second compound 0.316 µM, first compound 0.01 µM): 66.8% | viability, T/C [3]: 64.4% | viability, T/C [4]: 46.7% | viability, T/C (second compound 1 µM, first compound 0.000316 µM): 81% | viability, T/C (second compound 1 µM, first compound 0.001 µM): 82.7% | viability, T/C (second compound 1 µM, first compound 0.00316 µM): 78.7% | viability, T/C (second compound 1 µM, first compound 0.01 µM): 68.2% | viability, T/C [5]: 84.6% | viability, T/C [6]: 66.2% | viability, T/C (second compound 3.16 µM, first compound 0.000316 µM): 80.6% | viability, T/C (second compound 3.16 µM, first compound 0.001 µM): 76.4% | viability, T/C (second compound 3.16 µM, first compound 0.00316 µM): 76% | viability, T/C (second compound 3.16 µM, first compound 0.01 µM): 67% | viability, T/C [7]: 63% | viability, T/C [8]: 38.6%

CC(=O)Nc1cccc(-n2c(=O)n(C3CC3)c(=O)c3c(Nc4ccc(I)cc4F)n(C)c(=O)c(C)c32)c1
viability, T/C (compound 0.0001 µM): 82.5% [middle of 5 runs] | viability, T/C (compound 0.01 µM): 35.6% [middle of 5 runs] | viability, T/C (compound 0.0316 µM): 20.8% [middle of 5 runs]

CC(C)NCC(C(=O)N1CCN(c2ncnc3c2C(C)CC3O)CC1)c1ccc(Cl)cc1 (stereo not drawn) + CNCc1ccccc1-c1csc(C(C)Nc2nc(C)nc3cc(OC)c(OC)cc23)c1
pIC50 (second compound 0.1 µM): < 5.00 | pIC50 (second compound 0.316 µM): < 5.00 | pIC50 (second compound 1 µM): < 5.00 | pIC50 (second compound 3.16 µM): 5.41 | pIC50 (second compound 10 µM): > 7.50 | viability, T/C [1]: 88.2% | viability, T/C [2]: 81.7% | viability, T/C [9]: 94.9% | viability, T/C [10]: 93.7% | viability, T/C [11]: 89.2% | viability, T/C [12]: 88% | viability, T/C [3]: 88.5% | viability, T/C [4]: 91.6% | viability, T/C [13]: 76.3% | viability, T/C [14]: 88.1% | viability, T/C [15]: 92.5% | viability, T/C [16]: 93.1% | viability, T/C [5]: 81.7% | viability, T/C [6]: 76.2% | viability, T/C [17]: 71.1% | viability, T/C [18]: 73% | viability, T/C [19]: 85.2% | viability, T/C [20]: 79.9% | viability, T/C [7]: 42.8% | viability, T/C [8]: 59.8% | viability, T/C [21]: 60% | viability, T/C [22]: 58.3% | viability, T/C [23]: 47.7% | viability, T/C [24]: 43.8% | viability, T/C [25]: 0.36% | viability, T/C [26]: 0.39% | viability, T/C [27]: 0.34% | viability, T/C [28]: 0.3% | viability, T/C [29]: 0.82% | viability, T/C [30]: 0.78%

CC1(C)CCC(CN2CCN(c3ccc(C(=O)NS(=O)(=O)c4ccc(NCC5CCOCC5)c([N+](=O)[O-])c4)c(Oc4cnc5[nH]ccc5c4)c3)CC2)=C(c2ccc(Cl)cc2)C1 + C=CC(=O)N1CCN(c2nc(=O)n(-c3c(C)ccnc3C(C)C)c3nc(-c4c(O)cccc4F)c(F)cc23)C(C)C1
pIC50 (second compound 0.1 µM): 5.10 | pIC50 (second compound 0.316 µM): < 5.00 | pIC50 (second compound 1 µM): < 5.00 | pIC50 (second compound 3.16 µM): < 5.00 | pIC50 (second compound 10 µM): < 5.00 | viability, T/C [1]: 83.4% | viability, T/C [2]: 102% | viability, T/C [9]: 88% | viability, T/C [10]: 81.2% | viability, T/C [11]: 91.6% | viability, T/C [12]: 39.9% | viability, T/C [3]: 93.9% | viability, T/C [4]: 89.1% | viability, T/C [13]: 68.6% | viability, T/C [14]: 79.4% | viability, T/C [15]: 92.2% | viability, T/C [16]: 61.5% | viability, T/C [5]: 90.9% | viability, T/C [6]: 73.7% | viability, T/C [17]: 94.7% | viability, T/C [18]: 96.6% | viability, T/C [19]: 84.6% | viability, T/C [20]: 65.6% | viability, T/C [7]: 63.3% | viability, T/C [8]: 96.4% | viability, T/C [21]: 81.6% | viability, T/C [22]: 64.1% | viability, T/C [23]: 84.4% | viability, T/C [24]: 61.3% | viability, T/C [25]: 77.8% | viability, T/C [26]: 84.3% | viability, T/C [27]: 58.2% | viability, T/C [28]: 81.9% | viability, T/C [29]: 56.3% | viability, T/C [30]: 70.6%
